Molecular target: T1, OtsA (Arthrobacter alpinus, UniProt C7EZF1)
T1 construct: recombinant, expressed in and purified from E. coli; self-assembles into large networks
T1 sequence (C7EZF1 1-495): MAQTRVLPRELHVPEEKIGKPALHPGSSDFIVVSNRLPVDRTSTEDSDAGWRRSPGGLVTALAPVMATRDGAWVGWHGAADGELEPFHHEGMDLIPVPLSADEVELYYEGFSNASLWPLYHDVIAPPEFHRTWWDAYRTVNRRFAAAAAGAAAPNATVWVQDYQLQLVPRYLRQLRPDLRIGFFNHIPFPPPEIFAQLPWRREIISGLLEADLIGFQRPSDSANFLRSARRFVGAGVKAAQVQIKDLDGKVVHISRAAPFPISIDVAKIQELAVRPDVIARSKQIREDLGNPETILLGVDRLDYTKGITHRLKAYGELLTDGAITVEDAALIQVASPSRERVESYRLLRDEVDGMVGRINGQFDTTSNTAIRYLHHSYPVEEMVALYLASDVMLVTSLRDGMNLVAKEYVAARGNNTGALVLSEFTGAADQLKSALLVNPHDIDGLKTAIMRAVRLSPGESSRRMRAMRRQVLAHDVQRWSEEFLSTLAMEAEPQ
Assay: dynamic light scattering, self-assembly promoted by T6P
Type: binding
Details: 10 uM OtsA, 20 mM Tris HCl pH 7.5, 1 mM MgCl2, 1 M urea, 20 °C; up to 500 uM T6P; T6P is also the enzyme product

For O=P(O)(O)OC[C@H]1O[C@H](O[C@H]2O[C@H](CO)[C@@H](O)[C@H](O)[C@H]2O)[C@H](O)[C@@H](O)[C@@H]1O [T6P, trehalose-6-phosphate], the “dynamic light scattering, self-assembly promoted by T6P” value was “increasing concentrations of this metabolite had a dramatic effect on promoting the rate of OtsA polymerization”.
